From article PMC8138958 (ACS infectious diseases, 2021)
≈ marks a conversion by molar mass, not a printed value. Read-outs that look alike come from different tables or passages of the source. Marks after values point to notes of the source that are not given here. Where a SMILES comes first, the peptide text is derived from it. Bridges are numbered along the chain shown (N, C = ends). [ ]: non-standard residue; d: D form. The star is where a group is joined. X2 = NC[C@@H](CC(=O)*)c1cccc(Cl)c1; Dab = NCC[C@H](N)C(=O)O; Dap = NC[C@H](N)C(=O)O

Assays:
E.coli IHMA940398 = format: cell-based, Escherichia coli; conditions: compound alone; reduced susceptibility to polymyxins
[1] = Cynomolgus monkey; cited from earlier work
K. pneumoniae IHMA580884 = format: cell-based, Klebsiella pneumoniae; conditions: compound alone; reduced susceptibility to polymyxins
P.aeruginosa IHMA517175 = format: cell-based, Pseudomonas aeruginosa; conditions: compound alone; reduced susceptibility to polymyxins
A.baumannii IHMA 517303 = format: cell-based, Acinetobacter baumannii; conditions: compound alone; reduced susceptibility to polymyxins
[2] = mouse; cited from earlier work
E. coli IHMA558090 = format: cell-based, Escherichia coli; conditions: compound alone; reduced susceptibility to polymyxins
A.baumannii NCTC 13301 = format: cell-based, Acinetobacter baumannii; conditions: compound alone, polymyxin-susceptible strain
[3] = Determination of kidney drug levels; format: in vivo; conditions: mouse, single 17.2 mg/kg subcutaneous dose, period 4-16 hr
A.baumannii BAA-747 = format: cell-based, Acinetobacter baumannii; conditions: compound alone; polymyxin-susceptible strain
P.aeruginosa IHMA644636 = format: cell-based, Pseudomonas aeruginosa; conditions: compound alone; reduced susceptibility to polymyxins
P.aeruginosa ATCC 27853 = format: cell-based, Pseudomonas aeruginosa; conditions: compound alone; polymyxin-susceptible strain
K.pneumoniae IHMA520329 = format: cell-based, Klebsiella pneumoniae; conditions: compound alone; reduced susceptibility to polymyxins
E.coli ATCC 25922 = format: cell-based, Escherichia coli; conditions: compound alone; polymyxin-susceptible strain
K.pneumonia ATCC 13882 = format: cell-based, Klebsiella pneumoniae; conditions: compound alone; polymyxin-susceptible strain
A.baumannii IHMA 851735 = assay: MIC by broth microdilution; format: cell-based, Acinetobacter baumannii; conditions: compound alone; reduced susceptibility to polymyxins
K.pneumoniae IHMA652780 = assay: MIC by broth microdilution; format: cell-based, Klebsiella pneumoniae; conditions: compound alone; reduced susceptibility to polymyxins
[4] = Plasma exposure in the renal toxicity study; format: in vivo; conditions: mouse, 25 mg/kg dose level
[5] = In vivo nephrotoxicity, kidney histopathology and urinary biomarkers; design: species or system male CD-1 mice
A. baumannii NCTC13301 = assay: Neutropenic mouse thigh efficacy model; format: in vivo, Acinetobacter baumannii; conditions: same conditions (20mg/kg)

| Compound | MIC E.coli IHMA940398 (E.coli IHMA940398) | MIC K. pneumoniae IHMA580884 (K. pneumoniae IHMA580884) | MIC P.aeruginosa IHMA517175 (P.aeruginosa IHMA517175) | MIC A.baumannii IHMA 517303 (A.baumannii IHMA 517303) | MIC E. coli IHMA558090 (E. coli IHMA558090) | MIC A.baumannii NCTC 13301 (A.baumannii NCTC 13301) | MIC A.baumannii BAA-747 (A.baumannii BAA-747) | MIC P.aeruginosa IHMA644636 (P.aeruginosa IHMA644636) | MIC P.aeruginosa ATCC 27853 (P.aeruginosa ATCC 27853) | MIC K.pneumoniae IHMA520329 (K.pneumoniae IHMA520329) | MIC E.coli ATCC 25922 (E.coli ATCC 25922) | MIC K.pneumonia ATCC 13882 (K.pneumonia ATCC 13882) | further results |
| --- | --- | --- | --- | --- | --- | --- | --- | --- | --- | --- | --- | --- | --- |
| CC(C)C[C@@H]1NC(=O)[C@@H](Cc2ccccc2)NC(=O)[C@H](CCN)NC(=O)[C@@H](NC(=O)[C@H](CN)NC(=O)[C@@H](NC(=O)C[C@H](CN)c2cccc(Cl)c2)[C@@H](C)O)CCNC(=O)[C@H]([C@@H](C)O)NC(=O)[C@H](CCN)NC(=O)[C@H](CCN)NC1=O [Compound 26, SPR206] (X2-T[Dap][Dab][Dab][dF]L[Dab][Dab]T; lactam 3-C (inferred)) | 32 µg/mL (≈ 28 µM) | 16 µg/mL (≈ 14 µM) | 8 µg/mL (≈ 6.99 µM) | >64 µg/mL | 8 µg/mL (≈ 6.99 µM) | 0.06 µg/mL (≈ 0.0524 µM) | 0.125 µg/mL (≈ 0.109 µM) | 32 µg/mL (≈ 28 µM) | 0.25 µg/mL (≈ 0.218 µM) | 64 µg/mL (≈ 55.9 µM) | 0.125 µg/mL (≈ 0.109 µM) | 0.125 µg/mL (≈ 0.109 µM) | renal toxicity compared to PMB [1]: significantly reduced renal toxicity compared to PMB; renal toxicity compared to PMB [2]: significantly reduced renal toxicity compared to PMB; AUC in renal tissue [3]: 850 µg·h/g |
| Colistin [2 (Colistin)] | 16 µg/mL | 16 µg/mL | 64 µg/mL | >64 µg/mL | 4 µg/mL | 0.5 µg/mL | 0.25 µg/mL | 32 µg/mL | 1 µg/mL | >64 µg/mL | 0.25 µg/mL | 0.25 µg/mL |  |
| Polymyxin B [1 (PMB)] | 16 µg/mL | 8 µg/mL | 8 µg/mL | >64 µg/mL | 4 µg/mL | 0.25 µg/mL | 0.25 µg/mL | 32 µg/mL | 0.5 µg/mL | 64 µg/mL | 0.25 µg/mL | 0.25 µg/mL | MIC A.baumannii IHMA 851735 (A.baumannii IHMA 851735): 4 µg/mL; MIC K.pneumoniae IHMA652780 (K.pneumoniae IHMA652780): 4 µg/mL; plasma AUCinf [4]: 57000 ng·h/mL; MIC A.baumannii NCTC 13301 (A.baumannii NCTC 13301; listed as PMB): 0.25 µg/mL; Histopathology score – number of animals Normal ([5]; 12.5 mg/kg, 24hr, n = 5): 5; Histopathology score – number of animals Minimal ([5]; 12.5 mg/kg, 4 days, n = 5): 1; Histopathology score – number of animals Normal ([5]; 12.5 mg/kg, 4 days, n = 5): 4; Histopathology score – number of animals Mild ([5]; 25 mg/kg, 24hr, n = 5): 2; Histopathology score – number of animals Minimal ([5]; 25 mg/kg, 24hr, n = 5): 2; Histopathology score – number of animals Moderate ([5]; 25 mg/kg, 24hr, n = 5): 1 ^*; Histopathology score – number of animals Minimal ([5]; 25 mg/kg, 4 days, n = 5): 2; kidney histopathology ([5]; mouse, 25 mg/kg sc three times per day, 24 hr and 4 day studies): significant histopathology changes in the kidneys; drop in colony forming units (CFU) from the pre-treatment level (A. baumannii NCTC13301): greater than 2 log10 |
